Experimental findings from paper PMC3866116 (PLoS ONE, 2013) are described below.

Like-named read-outs stand apart in the source and are kept apart here.

For data set [1], the system named is HCV subgenomic replicon RNA of genotype 1b strain N (Huh7/Rep-Feo cells). As to the kind of experiment: Luciferase assay in HCV subgenomic replicon cell line Huh7/Rep-Feo. The format is cell-based, hepatitis C virus. As to conditions: for EC50: Hepatitis C virus, read-out: EC50, fifty percent effective concentration based on the inhibition of HCV replication; for HCV RNA replication (luciferase activity): various concentrations (compound 1: 1.3 to 40 µM), dose-dependent. As for the experimental part:
(§1) The Huh7/Rep-Feo cell line, which harbors the subgenomic replicon RNA composed of HCV IRES, the gene of the fusion protein consisting of neomycin phosphotransferase and firefly luciferase, EMCV IRES and a nonstructural gene of genotype 1b strain N in order in Huh7 cell line, was previously established. Thus, the luciferase activity corresponds to the level of HCV RNA replication. The cell line was maintained in Dulbecco's modified Eagle medium containing 10% fetal calf serum and 0.5 mg/mL G418 and cultured in absence of G418 when they were treated with compounds. The Lunet/Con1LUN Sb #26 cell line, which harbors the subgenomic replicon RNA of the Con1 strain (genotype 1b), was described previously. The OR6 cell line, which harbors the full genomic replicon RNA of the O strain (genotype 1b), was described previously. The HCV replicon cell line derived from the genotype 2a strain JFH1 was described previously. The viral RNA derived from the plasmid pJFH1 was transcribed and introduced into Huh7OK1 cells according to the method of Wakita et al.. The virus was amplified by the several times passages. The cells were infected with the virus at a multiplicity of infection (moi) of 1 and then treated with each compound at 24 h post-infection. The culture supernatants were harvested 72 h post-treatment to estimate the viral RNA as described below.
The replicon cells were seeded at 2×10^4 cells per well in a 48-well plate 24 h before treatment. […] The resulting cells were harvested 72 h post-treatment and lysed with cell culture lysis reagent (Promega, Madison, WI). The luciferase activity of each cell lysate was estimated using a luciferase assay system (Promega). The resulting luminescence was detected by a Luminescencer-JNR AB-2100 (ATTO, Tokyo, Japan).
(A replicon is a self-replicating genome or part of one, used to study replication in cells.)

For data set [2], the system named is ISGs (Mx1, MxA, IFIT4, ISG15, OAS1, OAS2, OAS3). As to the kind of experiment: RT-PCR of interferon stimulated genes in replicon cells. As to conditions: replicon cell line of genotype 1b, 48 h, listed as CAPE. The format is cell-based. As for the experimental part:
Total RNAs were prepared from cells by using the RNAqueous-4PCR kit (Life Technologies, Carlsbad, CA). Viral RNA were prepared from culture supernatants by using the QIAamp Viral RNA mini kit (QIAGEN, Hilden, Germany). The viral RNA genome was estimated by the qRT-PCR method described previously. RT-PCR was carried out by the method described previously which was slightly modified at the PCR step. The PCR samples were incubated once for 10 min at 95°C for an initial activation step of the AmpliTaq Gold DNA Polymerase (Life Technologies), and then subjected to an amplification step of 30 repeats of the cycle consisting of three segments as follow: 0.5 min at 95°C, 1 min at 55°C and 1 min at 72°C. The primers used in this study were as follows: Mx1: 5′-[…]-3′ and 5′-[…]-3′;

The next data set concerns ISRE-promoter activity. Put plainly: ISRE reporter assay in Huh7 OK1 cells. The format is cell-based. The following applies: 48 h of treatment, interferon alpha 2b as positive control. On the technique in general: A reporter such as luciferase makes a cellular process visible.
The test system of a further data set is Huh7/Rep-Feo cells. Put plainly: Cytotoxicity (MTS assay) in Huh7/Rep-Feo replicon cells. The class given is cell-based. As to conditions: Huh7/Rep-Feo, 1.3 to 40 µM, 72 h. Here is the method: (§2) The replicon cells were seeded at a density of 1×10^4 cells per well in a 96-well plate and then incubated at 37°C for 24 h. […] Cell viability was measured using a dimethylthiazol carboxymethoxy-phenylsulfophenyl tetrazolium (MTS) assay with a CellTiter 96 aqueous one-solution cell proliferation assay kit (Promega).

Experiment in data set [3]: as above
The format is cell-based. As to conditions: human, Huh7/Rep-Feo cells, MTS, read-out: CC50, fifty percent cytotoxicity concentration based on the reduction in cell viability. Here is the method: as §2

A further data set deals with HCV NS3. As to the kind of experiment: Western blotting of NS3 in Huh7/Rep-Feo cells. As to conditions: Huh7/Rep-Feo cells treated 72 h, dose-dependent. The class given is cell-based, hepatitis C virus. Here is the method: Western blotting was carried out by the method described previously. The antibodies to NS3 (clone 8G-2, mousemonoclonal, Abcam, Cambridge, UK), and beta-actin were purchased from Cell Signaling Technology (rabbit polyclonal, Danvers, MA, USA) and were used as the primary antibodies in this study.

Data set [4] concerns HCVcc derived from JFH-1 strain. Put plainly: HCVcc virus production in Huh7 OK1 cells (supernatant viral RNA by qRT-PCR). The class given is cell-based. As to conditions: Hepatitis C virus, 24 h, read-out: EC50 of HCV viral production. As for the experimental part: as §1, with “below. […]” for “below.”
Data set [5] has as its system HCV full genomic replicon RNA of the O strain (genotype 1b). As to the kind of experiment: Luciferase assay in OR6 full genome replicon cells. The format is cell-based, hepatitis C virus. Here is the method: as §1, with “The cells were infected with the virus at a multiplicity of infection (moi) of 1 and then treated with each compound at 24 h post-infection. The culture supernatants were harvested 72 h post-treatment to estimate the viral RNA as described below.” left out
(§3) The replicon cells were seeded at 2×10^4 cells per well in a 48-well plate 24 h before treatment. […] The resulting luminescence was detected by a Luminescencer-JNR AB-2100 (ATTO, Tokyo, Japan).

The subject of data set [6] is firefly and Renilla luciferases. Put plainly: Effect on firefly and Renilla luciferase activities in transfected Huh7 cells. The class given is cell-based. As to conditions: 40 µg/ml, 72 h. As for the experimental part:
(§4) Huh7 OK1 cells were transfected with pEF.Rluc.HCV.IRES.Feo or pEF.Rluc.EMCV.IRES.Feo [39]. These transfected cells were seeded at 2×10^4 cells per well in a 48-well plate 24 h before treatment, treated with DMSO or compound 10, and then harvested at 72 h post-treatment. The firefly luciferase activities were measured with a luciferase assay system (Promega). The total protein concentration was measured using the BCA Protein Assay Reagent Kit (Thermo Scientific, Rockford, IL, USA) to normalize luciferase activity. To evaluate the interferon response, Huh7OK1 cells were seeded on a 48 well plate at a density of 2×10^4 cells per well, and transfected with pISRE-TA-Luc (Takara bio, Shiga, Japan) and phRG-TK (Promega). These transfected cells were incubated in the presence of compounds, IFN-α 2b, or DMSO, and then harvested at 48 h post-treatment. The firefly luciferase and Renilla luciferase activities were quantified by using Dual luciferase reporter assay system (Promega).

In data set [7] the test system is HCV subgenomic replicon of genotype 2a strain JFH1. Put plainly: Luciferase assay in genotype 2a JFH1 replicon cells. The class given is cell-based, hepatitis C virus. As to conditions: Huh7 Rep/Reo-2a, JFH1 (2a). Here is the method:
as §1, with “The cells were infected with the virus at a multiplicity of infection (moi) of 1 and then treated with each compound at 24 h post-infection. The culture supernatants were harvested 72 h post-treatment to estimate the viral RNA as described below.” left out
as §3

A further data set deals with EMCV or HCV IRES. As to the kind of experiment: Effect on IRES-dependent translation in transfected Huh7 cells. The format is cell-based. As to conditions: 40 µg/ml, 72 h. As for the experimental part:
as §4

In data set [8] the test system is HCV subgenomic replicon RNA of the Con1 strain (genotype 1b). As to the kind of experiment: Luciferase assay in Con1 LUN Sb #26 replicon cells. The format is cell-based, hepatitis C virus. Here is the method:
as §1, with “The cells were infected with the virus at a multiplicity of infection (moi) of 1 and then treated with each compound at 24 h post-infection. The culture supernatants were harvested 72 h post-treatment to estimate the viral RNA as described below.” left out
as §3

On to `O=C(/C=C/c1ccc(O)c(O)c1)OCCc1ccccc1` [Compound 1, Caffeic acid phenethyl ester], for which the EC50 in data set [1] (Huh-7, 72 h) is 9000 ± 700 nM. For the same compound, the “HCV RNA replication (luciferase activity)” value in [1] (Huh7/Rep-Feo, 72 h) was “suppressed”. Besides, in [2], the “transcriptional expressions of ISGs (Mx1, MxA, IFIT4, ISG15, OAS1, OAS2, OAS3) induced” value was “did not induce”. Further, the “effect on ISRE-promoter activities” value in the data set with ISRE-promoter activity is on record as “no significant effects”. The cell viability entry in the data set with Huh7/Rep-Feo cells is “did not affect”. For the same compound, in [3], the CC50 at 72 h was found to be 136000 ± 1900 nM. For the same compound, the NS3 protein level entry in the data set on HCV NS3 is “decreased”.

Regarding `CCCCCCCCOC(=O)/C=C/c1ccc(O)c(O)c1` [Compound 10, Caffeic acid n-octyl ester], the EC50 is 2700 ± 100 nM in data set [1] (Huh-7, Huh7/Rep-Feo, subgenome, strain N (1b), 72 h); 1800 ± 400 nM in data set [4]; 1500 ± 400 nM in data set [5] (Hepatitis C virus, OR6, full genome, O (1b), 72 h, read-out: EC50, fifty percent effective concentration based on the inhibition of HCV replication); 1000 ± 300 nM in [7] (Hepatitis C virus, Huh-7, subgenome, 72 h, read-out: EC50, fifty percent effective concentration based on the inhibition of HCV replication); 1000 ± 100 nM in [8] (Hepatitis C virus, Con1 LUN Sb #26, subgenome, Con1 (1b), 72 h, read-out: EC50, fifty percent effective concentration based on the inhibition of HCV replication). The “SI, selectivity index (CC50/EC50)” value is recorded as 26.6 in [1] (Huh7/Rep-Feo, strain N (1b)); 41.1 in data set [5] (OR6, O (1b)); 60.0 in data set [7]; 63.1 in [8] (Con1 LUN Sb #26, Con1 (1b)). Besides, the “HCV RNA replication (luciferase activity)” value in [1] (Huh7/Rep-Feo, 72 h) is reported as “reduced”. For the same compound, the “enzymatic activities of firefly and Renilla luciferases” value in data set [6] is on record as “not effect”. In addition, the IRES-dependent translation result in the data set with EMCV or HCV IRES is “not effect”. Besides, the “effect on ISRE-promoter activities” value with ISRE-promoter activity is “no significant effects”. Also, the CC50 at 72 h in data set [3] (Huh7/Rep-Feo replicon cells) was found to be 71700 ± 8500 nM. In addition, the NS3 protein level entry in the data set with HCV NS3 is “reduced”.
